# Measured values from paper PMC10989073, “Antineoplastic effect of compounds C14 and P8 on TNBC and radioresistant TNBC cells by stabilizing the K-Ras4B^G13D/PDE6δ complex” (Frontiers in Oncology, 2024).
# Where two headings read alike, the source gives them in different places.
# Legend:
# MDA-MB-231 cells = experiment: XTT cell viability assay and IC50 determination; format: cell-based, human; conditions: for IC50: XTT, ± SD; for concentration from which a significant cytotoxic effect is seen: compared to vehicle (DMSO)
# Method: In order to evaluate the effect of the C14 and P8 compounds over MCF-10A, MCF-7, MDA-MB-231, and […] cell lines, the IC50 of those molecules was determined. In brief, all the cell lines were seeded at a density of 15,000 cells per well in a 96-well microtiter plate (Corning) in a corresponding growth medium for 24 h. Then, cells were treated with increasing concentrations (from 0 to 200 μM) of the C14 and P8 compounds (Enamine, Kyiv, Ukraine). As a positive control, increased concentrations of cisplatin (from 0 to 200 µM) (Accord, Mexico City, Mexico) were employed. Due to that, dimethyl sulfoxide (DMSO) was used as a vehicle, and its increased concentrations were evaluated as the negative control. All the samples were maintained under growth conditions for 24 h and 48 h. At the end of each time, cell viability was determined using the XTT Cell Proliferation Kit II (Roche Applied Science, Mannheim, Germany) following the manufacturer’s protocol. The absorbance was measured in a spectrophotometer Synergy-HTX (BioTek) at a wavelength of 450–500 nm with a reference wavelength of 650 nm. Cell proliferation was expressed as a percentage of viability [(absorbance of treated cells/absorbance of untreated cells × 100)] ± SD.
# [1] = tested on: MDA-MB-231RR xenograft tumors; experiment: Immunohistochemistry and digital pathology of xenograft tumors; format: in vivo, Nu/Nu nude mice; conditions: for expression of CD31 (IHC) / mitotic index (H&E staining): MDA-MB-231RR xenograft tumors; for PCNA expression (IHC, digital pathology) / VEGF expression (IHC, digital pathology) / cyclin D1 expression (IHC, digital pathology): MDA-MB-231RR xenograft tumors after treatment; for mitotic index (H&E staining): compared to the control group
# Method: To determine the impact of C14 and P8 drugs on tumor inhibition, angiogenic, and cell cycle markers in a xenograft model, immunohistochemical assays and digital pathological analysis were conducted. For tissue preparation, 4-µm-thick tumor sections underwent a series of preparations: i) deparaffinization in xylene, ii) antigen retrieval in a sodium citrate buffer at pH 6, iii) blocking of endogenous peroxidase activity using a 10% hydrogen peroxide solution, and iv) non-specific binding blockade for 1 h. For the antibody incubation, the tumor sections were incubated with primary antibodies: Anti-Cyclin D1 (Abcam), Anti-PCNA (Abcam), Anti-CD31 (Abcam), Anti-VEGF (Abcam) at a 1:500 dilution.
# The incubation with primary antibodies occurred at room temperature overnight. Subsequently, secondary antibody incubation was conducted. Then, the sections were incubated with horseradish peroxidase (HRP)-conjugated secondary antibody for 30 minutes. Finally, visualization and staining were performed using a diaminobenzidine (DAB) detection system from Vector Laboratories, Inc. (Burlingame, CA, USA). Counterstaining was performed using hematoxylin.
# For the mitotic index evaluation, hematoxylin and eosin (H&E) staining was conducted to calculate the mitotic index. From each H&E-stained tumor tissue, 10 random fields were captured at ×40 magnification, and the number of mitotic figures was counted. The average count was used to calculate the mitotic index using the following formula: Mitotic index = Number of mitoses/10.
# For digital pathology analysis, the immunohistochemistry (IHC)-stained sections were digitized using an Aperio ScanScope CS2 from Leica Biosystems (Nussloch, Germany), which generated high-resolution ×20 digital images (0.45 µm/pixel). These images were analyzed using ImageScope (Aperio, San Diego, CA, USA) to quantify marker expression. Then, a quantification algorithm was developed for each tissue to assess total and nuclear protein expression. The ImageScope allowed setting thresholds for color saturation and defining upper and lower limits for intensities of weak, moderate, and strong positive pixels. Lastly, the raw data encompassed the number of positive pixels and the intensity of positive pixels, which were normalized to the number of total pixels counted in µm^2. Data were presented as total density per µm^2.
# [2] = tested on: cyclin D1 and GSK3β in MDA-MB-231RR cells; experiment: Western blotting of cyclin D1 and GSK3β; format: cell-based, human; conditions: 3 h; for reduction in cyclin D1: C14 and P8 at IC50-24 (Figure 7 legend), cisplatin 100 µM, doxorubicin 0.5 µM; for reduction in GSK3β expression: IC50-24 (Figure 7 legend), densitometry
# Method: To determine the effect of the C14 and P8 compounds over the protein effectors of K-Ras4B, AKT, and ERK, immunoblotting assays were conducted with specific antibodies. In brief, MCF-10A, MDA-MB-231, and MDA-MB-231RR cells were plated in 100-mm culture dishes until 80% of confluents. Cell adhesion was allowed for 24 h. […] After pre-treatment, cells were stimulated with 100 ng/ml EGF for 10 minutes to promote AKT and ERK activation. Later, the whole-cell extracts were obtained by the lysis of the cells (Cytoskeleton) in the presence of proteases and phosphatase inhibitors. Subsequently, the protein extracts were incubated at 4°C for 40 minutes to be clarified by centrifugation for 10 minutes at 14,000 rpm, at 4°C. The protein concentration of each extract was determined by using the Precision Red Advanced Protein Assay Reagent (Cytoskeleton) Then, approximately 25 μg of protein extract was electrophoresed in 10% sodium dodecyl sulfate–polyacrylamide gel electrophoresis (SDS-PAGE) and transferred to polyvinylidene fluoride (PVDF) membranes (Millipore, Billerica, MA, USA). Blots were probed using the following primary antibodies: Total ERK (Cell Signaling, Danvers, MA, USA), pERK (Cell Signaling), Total AKT (Cell Signaling), pAKT (Cell Signaling), GSK3β (Cell Signaling), and cyclin D1 (Abcam) at a 1:1,000 dilution. As a control, an anti-GAPDH antibody (GeneTex, Irvine, CA, USA) was employed at a 1:100,000 dilution and γ-Tubulin (Invitrogen) 1:5,000. Densitometric analysis of blots was performed using the software ImageJ version 1.45 (National Institutes of Health, Bethesda, […], USA).
# Ras-GTP in MCF-10A cells = experiment: Ras activation pull-down assay (Raf-RBD); format: cell-based, human; conditions: 3 h pre-treatment (C14, P8 at IC50-48H), EGF 100 ng/ml 10 min
# Method: Subsequently, the cells were stimulated with epidermal growth factor (EGF) (100 ng/ml) for 10 minutes. Lysates (1 mg/ml) were exposed to Ras GTP-binding protein (Raf-RBD), following the manufacturer’s instructions. Experiments for each cell type and condition were repeated three times.
# [3] = Body weight and survival of xenograft mice under treatment; format: in vivo
# Method: Female immune-deficient Nu/Nu nude mice at 6–8 weeks of age ([…], Mexico City, Mexico) were maintained in pathogen-free conditions with irradiated chow. […] Body weight and tumor volume were measured every third day. Tumor sizes were calculated using the formula [(length × width2)/2] in mm.
Structure (SMILES),"IC50 (MDA-MB-231 cells; MDA-MB-231, 24 h, read-out: IC50-24) [µM]","IC50 (MDA-MB-231 cells; MDA-MB-231, 48 h, read-out: IC50-48) [µM]","concentration from which a significant cytotoxic effect is seen (MDA-MB-231 cells; MDA-MB-231, 48 h) [µM]",expression of CD31 (IHC) [1],"PCNA expression (IHC, digital pathology) [1] [μm^2]","VEGF expression (IHC, digital pathology) [1]","cyclin D1 expression (IHC, digital pathology) [1] [μm^2]",mitotic index (H&E staining) [1],reduction in cyclin D1 [2] [%],reduction in GSK3β expression [2] [%],reduction in Ras-GTP (Ras-GTP in MCF-10A cells),"tolerability (weight loss, overall survival) ([3]; mouse, in vivo, ip, 30 mg/kg)","survival of mice ([3]; Nu/Nu mice, cisplatin 6 mg/kg i.p. daily) [days]","weight decrease ([3]; Nu/Nu mice, cisplatin 6 mg/kg i.p. daily, within the first 5 days of treatment) [%]","IC50 (MDA-MB-231 cells; Homo sapiens, MDA-MB-231, 24 h, read-out: IC50-24) [µM]","IC50 (MDA-MB-231 cells; Homo sapiens, MDA-MB-231, 48 h, read-out: IC50-48) [µM]","tolerability (weight loss, overall survival) ([3]; Nu/Nu mice, 30 mg/kg i.p. daily)"
"CN(CC(=O)NC1CCOc2ccccc21)Cc1cccc(Cl)c1 (stereo not shown) [C14, 2-[(3-chlorophenyl)-methyl-methyl-amino]-N-croman-4-yl-acetamide]",91.1 ± 3.9,60 ± 6.6,≥ 10,decreased,10,100 μm^2,8,lower,40,50,approximately 40%,well tolerated,–,–,–,–,–
"N.N.[Cl][Pt][Cl] [Cisplatin, cisplatin, reference compound]",–,–,–,–,22,"3,000 μm^2",25,–,20,–,did not show an effect,–,≤ 6,> 20,–,–,–
"O=C(CN1CCN(c2cccc(Cl)c2)CC1)N[C@@H]1CCOc2ccccc21 [P8, 2-[4-(3-chlorophenyl)piperazin-1-yl]-N-[(4R)-chroman-4-yl]acetamide]",–,–,≥ 10,decreased,18,"3,000 μm^2",20,lower,18,25,approximately 40%,–,–,–,140 ± 33.5,63.2 ± 10.6,well tolerated
